Measurements as given in the Deep4Chem optical property database.
Several values for one entry are separate records, joined by “and”; a condition that tells them apart may be missing. Equal entries are not always repeated. One block for each molecule: values may come before it.

Experiment: photoluminescence quantum yield (fraction); solvent given as SMILES

photoluminescence quantum yield (in ClCCl): 0.06
Structure (SMILES): CN(C)c1ccc(-c2cc(-c3ccccc3)nn2C)cc1

photoluminescence quantum yield (in CC#N): 0.14
Structure (SMILES): Cc1cccc2c1nc1c(=O)n(C)c(=O)nc-1n2C

photoluminescence quantum yield (in C1COCCO1): 0.048 | photoluminescence quantum yield (in CC#N): 0.033 | photoluminescence quantum yield (in CCO): 0.028 | photoluminescence quantum yield (in CCOC(C)=O): 0.041 | photoluminescence quantum yield (in O): 0.013
Structure (SMILES): CN1C(=O)/C(=C/c2ccncc2)N=C1/C=C/c1ccncc1

photoluminescence quantum yield (in C1CCCCC1): 0.34 | photoluminescence quantum yield (in C1CCOC1): 0.17 | photoluminescence quantum yield (in C1COCCO1): 0.26 | photoluminescence quantum yield (in CC#N): 0.1 and 0.19 | photoluminescence quantum yield (in CCCCCC): 0.22 and 0.3 | photoluminescence quantum yield (in CO): 0.12 and 0.1 | photoluminescence quantum yield (in ClC(Cl)Cl): 0.23 and 0.3 | photoluminescence quantum yield (in ClCCl): 0.15
Structure (SMILES): F[B-]1(F)n2c(nc(-c3ccccc3)c2-c2ccccc2)-c2cccc[n+]21

photoluminescence quantum yield (in ClCCl): 0.76
Structure (SMILES): COc1cc(-c2cnc(-c3ccncc3)o2)cc(OC)c1OC

photoluminescence quantum yield (in ClCCl): 0.185
Structure (SMILES): Cc1cc2ccccc2c2c1c1ccccc1n2C(=O)OC(C)(C)C

photoluminescence quantum yield (in C1CCOC1): 0.01 | photoluminescence quantum yield (in CC(C)O): 0.01 | photoluminescence quantum yield (in CO): 0.01 | photoluminescence quantum yield (in CS(C)=O): 0.01 | photoluminescence quantum yield (in ClC(Cl)Cl): 0.01 | photoluminescence quantum yield (in ClCCl): 0.01
Structure (SMILES): COc1ccccc1-c1c(-c2ccccc2O)nc(-c2ccc(C(F)(F)F)cc2)n1-c1ccc(C)cc1

photoluminescence quantum yield (in ClCCl): 0.3
Structure (SMILES): COc1ccc(-c2cc(-c3ccc(C#N)cc3)nn2C)cc1

photoluminescence quantum yield (in C1CCOC1): 0.45 | photoluminescence quantum yield (in CC#N): 0.31 | photoluminescence quantum yield (in CC(C)O): 0.23 | photoluminescence quantum yield (in CCCCO): 0.17 | photoluminescence quantum yield (in CCO): 0.18 | photoluminescence quantum yield (in CO): 0.18 | photoluminescence quantum yield (in ClCCl): 0.32 | photoluminescence quantum yield (in O): 0.41
Structure (SMILES): COc1ccc2cc([C@H](C)C(=O)O)ccc2c1

photoluminescence quantum yield (in CC#N): 0.76
Structure (SMILES): Cc1ccc(-c2ccc(/C=C/c3ccc(Cl)cc3)cn2)nc1

photoluminescence quantum yield (in C1COCCO1): 0.295
Structure (SMILES): COC(=O)c1ccc(/C=C2\N=C(c3ccc(OC)c(OC)c3)NC2=O)cc1

photoluminescence quantum yield (in CCO): 0.3 | photoluminescence quantum yield (in ClCCl): 0.83
Structure (SMILES): CCN(CC)c1ccc2cc(C#N)/c(=N\C(=O)c3ccc(F)cc3)oc2c1

photoluminescence quantum yield (in CCO): 0.4 | photoluminescence quantum yield (in O): 0.26
Structure (SMILES): CC/[NH+]=c1\cc2oc3cc(NCCC(=O)NC(C(=O)OC)C(C)C)c4ccccc4c3nc-2cc1C (stereo not given)

photoluminescence quantum yield (in ClCCl): 0.004
Structure (SMILES): c1ccc(C2=C(c3ccccn3)[Si](c3ccccc3)(c3ccccc3)c3ccccc32)cc1

photoluminescence quantum yield (in ClCCl): 0.72
Structure (SMILES): CN(C)c1ccc(/C=C/c2cc(/C=C/c3ccc(N(C)C)cc3)nc(/C=C/c3ccccc3)n2)cc1

photoluminescence quantum yield (in C1CCOC1): 0.14 | photoluminescence quantum yield (in CC#N): 0.05 | photoluminescence quantum yield (in CCCCCC): 0.45
Structure (SMILES): CC1=N/C(=C\c2cc(C#N)cc(N(C)C)c2)C(=O)N1C

photoluminescence quantum yield (in CC#N): 0.05
Structure (SMILES): CCCCCCCCCCOc1cc2cc(C#Cc3ccc(/C=C(\C#N)C(=O)O)cc3)c(=O)oc2cc1OCCCCCCCCCC

photoluminescence quantum yield (in C1CCCCC1): 0.55 | photoluminescence quantum yield (in CC#N): 0.38 | photoluminescence quantum yield (in CCO): 0.41 | photoluminescence quantum yield (in CCOC(C)=O): 0.31
Structure (SMILES): COC(=O)c1nc(-c2ccc(OC)cc2)oc1C

More lines, now with the values behind:

Structure (SMILES): Cc1cccc2[n+]1[B-](F)(F)n1c(c3cccc4cccc1c43)=N2
photoluminescence quantum yield (in C1CCOC1): 0.99 | photoluminescence quantum yield (in CC#N): 0.99 | photoluminescence quantum yield (in CCCCCC): 0.99 | photoluminescence quantum yield (in Cc1ccccc1): 0.99 | photoluminescence quantum yield (in ClCCl): 0.99

Structure (SMILES): CCCCCCOc1cc(N(CC)CC)ccc1/C=C/C(=C(C#N)C#N)c1ccc(N(c2ccccc2)c2ccccc2)cc1
photoluminescence quantum yield (in ClCCl): 0.178

Structure (SMILES): CCCCCCC(CCCCCC)N1C(=O)c2cccc3c(-c4ccc([Si](C)(C)C)cc4)ccc(c23)C1=O
photoluminescence quantum yield (in CCCCCC): 0.14 | photoluminescence quantum yield (in CCCCCCCCCCCCCC): 0.18 | photoluminescence quantum yield (in CCCCCCCCCCCO): 0.85 | photoluminescence quantum yield (in CCCCO): 0.89 | photoluminescence quantum yield (in CN(C)C=O): 0.64 | photoluminescence quantum yield (in Cc1ccccc1): 0.51 | photoluminescence quantum yield (in ClC(Cl)Cl): 0.79

Structure (SMILES): C1=Cc2ccc3ccccc3c2N(c2ccccc2)B1c1ccccc1
photoluminescence quantum yield (in C1CCCCC1): 0.04

Structure (SMILES): Cn1c2ccccc2c2cc(/C=C/C3=[O+][B-](F)(F)OC(/C=C/c4ccc5c(c4)c4ccccc4n5C)=C3c3ccccc3)ccc21
photoluminescence quantum yield (in ClCCl): 0.6

Structure (SMILES): CCn1c2ccccc2c2cc(-c3cc(-c4ccc5c(c4)c4ccccc4n5CC)nc(OC)n3)ccc21
photoluminescence quantum yield (in C1CCOC1): 0.48 | photoluminescence quantum yield (in CCOC(C)=O): 0.76 | photoluminescence quantum yield (in CN(C)C=O): 0.69 | photoluminescence quantum yield (in Cc1ccccc1): 0.68 | photoluminescence quantum yield (in ClCCl): 0.69

Structure (SMILES): C[Si]1(c2ccccc2)C(c2ccc(-n3c4ccccc4c4ccccc43)cc2)=C(c2ccccc2)C(c2ccccc2)=C1c1ccc(-n2c3ccccc3c3ccccc32)cc1
photoluminescence quantum yield (in C1CCOC1): 0.032

Structure (SMILES): C(=C\c1ccc(/C=C/c2ccc(N(c3ccccc3)c3ccccc3)cc2)c2nsnc12)/c1ccc(N(c2ccccc2)c2ccccc2)cc1
photoluminescence quantum yield (in C1CCOC1): 0.228 | photoluminescence quantum yield (in CCOC(C)=O): 0.275 | photoluminescence quantum yield (in CN(C)C=O): 0.061 | photoluminescence quantum yield (in Cc1ccccc1): 0.345 | photoluminescence quantum yield (in ClC(Cl)Cl): 0.148 | photoluminescence quantum yield (in ClCCl): 0.137

Structure (SMILES): CC1(C)C(/C=C/C=C/C=C/C=C2/N(CCCCCC(=O)O)c3ccc(S(=O)(=O)[O-])cc3C2(C)C)=[N+](CCCCCC(=O)O)c2ccc(S(=O)(=O)[O-])cc21
photoluminescence quantum yield (in CO): 0.62 | photoluminescence quantum yield (in O): 0.28

Structure (SMILES): CCCCCCCCOc1ccc(C2=C3C(C)=C(C#Cc4ccc(B(c5c(C)cc(C)cc5C)c5c(C)cc(C)cc5C)cc4)C(C)=[N+]3[B-](F)(F)n3c(C)c(C#Cc4ccc(B(c5c(C)cc(C)cc5C)c5c(C)cc(C)cc5C)cc4)c(C)c32)cc1
photoluminescence quantum yield (in ClCCl): 0.65

Structure (SMILES): COc1ccc(C2=[N+]3C(=Nc4c(-c5ccccc5-c5ccc(C(C)(C)C)cc5)cc(-c5ccc(OC)cc5)n4[B-]3(F)F)c3c2c2cc(C(C)(C)C)ccc2c2ccccc32)cc1
photoluminescence quantum yield (in Cc1ccccc1): 0.38

Structure (SMILES): O=S(=O)(c1ccccc1)c1ccc(-n2c3ccccc3c3c2c2ccccc2n3-c2ccccc2)cc1
photoluminescence quantum yield (in Cc1ccccc1): 0.195

Structure (SMILES): Oc1ccc2ccc(C3(O)C4CC5CC(C4)CC3C5)cc2c1 (stereo not given)
photoluminescence quantum yield (in CC#N): 0.3

Structure (SMILES): CCOC(=O)COc1ccc(/C=C/C2=C3c4ccccc4C(c4[nH]c(C)cc4C)=[N+]3[B-](F)(F)n3c(/C=C/c4ccc(OCC(=O)OCC)cc4)cc(C)c32)cc1
photoluminescence quantum yield (in C1CCOC1): 0.05 | photoluminescence quantum yield (in CC#N): 0.009 | photoluminescence quantum yield (in CCCCCC): 0.04 | photoluminescence quantum yield (in CO): 0.002 | photoluminescence quantum yield (in Cc1ccccc1): 0.009 | photoluminescence quantum yield (in ClCCl): 0.012

Structure (SMILES): CCCCCCCCCCCCOc1cc(C(=O)Nc2ccc(-c3ccc4c(c3)C(=O)c3ccccc3-4)cc2)cc(OCCCCCCCCCCCC)c1OCCCCCCCCCCCC
photoluminescence quantum yield (in C1CCOC1): 0.04

Structure (SMILES): Oc1ccccc1-c1nc2c3ccccc3c3ccccc3c2o1
photoluminescence quantum yield (in Cc1ccccc1): 0.003

Structure (SMILES): Cc1cc(=O)oc2c3c4c(cc12)CCCN4CCC3
photoluminescence quantum yield (in CCC#N): 0.9 | photoluminescence quantum yield (in CCCCl): 0.8 | photoluminescence quantum yield (in CCO): 0.8 | photoluminescence quantum yield (in OC(C(F)(F)F)C(F)(F)F): 0.86 | photoluminescence quantum yield (in OCC(F)(F)F): 0.84

Structure (SMILES): CCCCN(CCCC)c1ccc(C#Cc2cc(C#Cc3ccc(N(CCCC)CCCC)cc3)c(C#Cc3cc(C(F)(F)F)cc(C(F)(F)F)c3)cc2C#Cc2cc(C(F)(F)F)cc(C(F)(F)F)c2)cc1
photoluminescence quantum yield (in ClCCl): 0.34
